The text below walks through data of US9617251B2, “Indanylaminopyridylcyclopropanecarboxylic acids, pharmaceutical compositions and uses thereof” (BOEHRINGER INGELHEIM INTERNATIONAL GMBH, priority 2015, dated 2017).

≈ marks a conversion by molar mass, not a printed value. Some results are limits rather than exact numbers.

A short description of data set [1]: Chemical stability: degradation kinetics in acidic aqueous media (pH ca. 1.2), HPLC recovery. In kind it is physicochemical. As to conditions: pH value of ca. 1.2 (acetonitrile/0.1 M aqueous HCl 2:3), 37° C. The method, then:
Degradation kinetics is used to simulate chemical stability of compounds in the acidic part of the gastro intestinal tract. […] Their application as medical drugs to treat human diseases is therefore less restricted and troublesome.
The chemical stability of the compounds of the invention at pH value of ca. 1.2 is determined as follows:
Compound is dissolved in an HPLC vial either in a mixture of acetonitrile/0.1 M aqueous HCl (2:3; pH ca. 1.2) or in a mixture of acetonitrile/McIlvaine buffer pH 7.4 (2:3) to get a concentration of approximately 0.25 mg/ml. The vial was then transferred into an HPLC autosampler system and maintained at a temperature of 37° C. A first sample is taken and injected immediately into a standard HPLC system with a UV DAD detector. Further samples are injected after 2, 4, 6, 8 and 10 hours. Amount of degraded compound is measured by determining the recovery rate of compound [%] for each injection using an HPLC standard gradient method. Therefore the peak area of the main peak for the first injection (AUt0) is determined and set as 100%. Peak area of the main peak is determined also for the further injections (AUtn, n=2, 4, 6, 8, 10) and expressed as fraction of (AUt0)/(AUtn, n=2, 4, 6, 8, 10) [%].

Data set [2] addresses T1, cytochrome P450 2C9-isoenzyme (Homo sapiens, UniProt P11712).
T1 construct: from tissue; host or cells: human liver microsomes
Kind of data set: Inhibition of CYP-2C9 (hydroxylation of diclofenac, human liver microsomes). In kind it is in vitro ADME. As to conditions: CYP-2C9, human liver microsomes, diclofenac 10 μM, 37° C. The protocol:
The inhibition of cytochrome P450 2C9-isoenzyme catalyzed hydroxylation of diclofenac by the test compound is assayed at 37° C. with human liver microsomes. All assays are carried out on a robotic system in 96 well plates. The final incubation volume contains TRIS buffer (0.1 M), MgCl2 (5 mM), human liver microsomes (0.1 mg/mL), diclofenac (10 μM) and the test compound at five different concentrations or no compound (high control) in duplicate (e.g., highest concentration 10-50 μM with subsequent serial 1:4 dilutions). Following a short preincubation period, reactions are started with the cofactor (NADPH, 1 mM) and stopped by cooling the incubation down to 8° C. and subsequently by addition of one volume of acetonitrile. An internal standard solution—the stable isotope ^13C6-hydroxydiclofenac—is added after quenching of incubations. Peak area analyte (=metabolite formed) and internal standard is determined by LC-MS/MS. The resulting peak area ratio analyte to internal standard in these incubations is compared to a control activity containing no test compound. Within each of the assay runs, the IC50 of a positive control inhibitor (sulfaphenazole) is determined. Experimental IC50 values are calculated by least square regression according to the following equation: % control activity=(100% control activity/(1+(I/IC50)S))−B with I=inhibitor concentration; S=slope factor; B=background activity (lower plateau of the inhibition curve)
(§1) If the inhibition of the reaction is already >50% at the lowest concentration of the test compound, the IC50 is assigned “<lowest concentration tested” (usually <0.4 μM). If the inhibition of the reaction is still <50% at the highest concentration of the test compound, the IC50 is assigned “>highest concentration tested” (usually >50 μM).
A general note: Liver microsomes are a subcellular fraction often used to study metabolism.

The target in a further data set is human GPR40 receptor (Homo sapiens, UniProt O14842). Nature of the data set: IP1 accumulation measurements using the IPOne assay system (1321N1 cells stably expressing human GPR40 receptor). In kind it is cell-based. The note with it: 1321N1 cells expressing human GPR40, 1 h stimulation at 37° C. The essentials:
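Cells were stimulated with compounds for 1 h at 37 °C in HEPES-buffered stimulation buffer containing 50 mM LiCl, pH 7.4. IP1 was then detected by HTRF (IP1-d2/anti-IP1 cryptate, 1 h at room temperature), and 665/615 ratios were converted using an IP1 reference curve, with pEC50 obtained by variable-slope sigmoidal fitting.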

Data set [3] can be described thus: Aqueous solubility in buffer vs acetonitrile/water (1/1), LC-UV. It is filed as physicochemical. The note with it: kinetic from dmso stock, buffer pH 2.2, 24 h shaking, 2.5% DMSO. The method, then: The aqueous solubility of the compounds of the invention is determined by comparing the amount dissolved in buffer to the amount in an acetonitrile/water (1/1) solution. Starting from a 10 mM DMSO stock solution aliquots are diluted with acetonitrile/water (1/1) or buffer, respectively. After 24 h of shaking, the solutions are filtrated and analyzed by LC-UV. The amount dissolved in buffer is compared to the amount in the acetonitrile solution.
Solubility is usually being measured from 0.001 to 0.125 mg/mL at a DMSO concentration of 2.5%. If more than 90% of the compound is dissolved in buffer, the value is marked with “>”.

Data set [4] addresses T2, cytochrome P450 2C8-isoenzyme (Homo sapiens, UniProt P10632).
T2 construct: from tissue; host or cells: human liver microsomes
T2 sequence (P10632 1-490): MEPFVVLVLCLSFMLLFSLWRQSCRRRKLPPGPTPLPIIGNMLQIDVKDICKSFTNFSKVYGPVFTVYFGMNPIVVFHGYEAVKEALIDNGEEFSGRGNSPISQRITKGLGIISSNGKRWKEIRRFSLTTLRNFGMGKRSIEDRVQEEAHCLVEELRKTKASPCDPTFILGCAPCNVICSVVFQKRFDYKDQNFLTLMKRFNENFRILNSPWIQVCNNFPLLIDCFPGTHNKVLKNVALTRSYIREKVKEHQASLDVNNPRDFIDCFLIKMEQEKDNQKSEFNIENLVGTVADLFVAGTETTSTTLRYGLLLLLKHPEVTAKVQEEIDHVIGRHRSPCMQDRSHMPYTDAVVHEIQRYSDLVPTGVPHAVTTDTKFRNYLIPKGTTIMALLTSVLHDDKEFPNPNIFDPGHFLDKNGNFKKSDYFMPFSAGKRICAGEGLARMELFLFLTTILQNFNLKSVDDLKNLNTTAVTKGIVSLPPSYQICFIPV
Kind of data set: Inhibition of CYP-2C8 (deethylation of amodiaquine, human liver microsomes). In kind it is in vitro ADME. As to conditions: CYP-2C8, human liver microsomes, amodiaquine 1 μM, 37° C. The method, then: The inhibition of cytochrome P450 2C8-isoenzyme catalyzed deethylation of amodiaquine by the test compound is assayed at 37° C. with human liver microsomes. All assays are carried out on a robotic system in 96 well plates. The final incubation volume contains TRIS buffer (0.1 M), MgCl2 (5 mM), human liver microsomes (0.05 mg/mL), amodiaquine (1 μM) and the test compound at five different concentrations or no compound (high control) in duplicate (e.g. highest concentration 10-50 μM with subsequent serial 1:4 dilutions). Following a short preincubation period, reactions are started with the cofactor (NADPH, 1 mM) and stopped by cooling the incubation down to 8° C. and subsequently by addition of one volume of acetonitrile. An internal standard solution—the stable isotope d5-desethylamodiaquine—is added after quenching of incubations. Peak area analyte (=metabolite formed) and internal standard is determined by LC-MS/MS. The resulting peak area ratio analyte to internal standard in these incubations is compared to a control activity containing no test compound. Within each of the assay runs, the IC50 of a positive control inhibitor (Montelukast) is determined. Experimental IC50 values are calculated by least square regression according to the following equation: % control activity=(100% control activity/(1+(I/IC50)S))−B with I=inhibitor concentration; S=slope factor; B=background activity (lower plateau of the inhibition curve)
as §1

T1 sequence (P11712 whole entry): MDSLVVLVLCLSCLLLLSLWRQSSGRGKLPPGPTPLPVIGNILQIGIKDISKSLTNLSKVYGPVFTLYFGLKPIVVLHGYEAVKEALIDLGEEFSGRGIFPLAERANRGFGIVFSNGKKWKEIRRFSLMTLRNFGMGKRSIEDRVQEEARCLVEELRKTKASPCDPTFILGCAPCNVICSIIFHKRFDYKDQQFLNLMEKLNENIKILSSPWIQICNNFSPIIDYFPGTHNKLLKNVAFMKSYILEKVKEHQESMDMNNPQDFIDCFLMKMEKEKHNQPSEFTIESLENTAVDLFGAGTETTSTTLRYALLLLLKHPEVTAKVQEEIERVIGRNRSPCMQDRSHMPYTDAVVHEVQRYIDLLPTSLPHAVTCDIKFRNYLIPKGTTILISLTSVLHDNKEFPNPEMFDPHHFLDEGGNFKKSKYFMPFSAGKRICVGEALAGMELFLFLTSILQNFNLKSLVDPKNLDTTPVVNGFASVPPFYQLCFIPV
Sequence of human GPR40 receptor (O14842 whole entry): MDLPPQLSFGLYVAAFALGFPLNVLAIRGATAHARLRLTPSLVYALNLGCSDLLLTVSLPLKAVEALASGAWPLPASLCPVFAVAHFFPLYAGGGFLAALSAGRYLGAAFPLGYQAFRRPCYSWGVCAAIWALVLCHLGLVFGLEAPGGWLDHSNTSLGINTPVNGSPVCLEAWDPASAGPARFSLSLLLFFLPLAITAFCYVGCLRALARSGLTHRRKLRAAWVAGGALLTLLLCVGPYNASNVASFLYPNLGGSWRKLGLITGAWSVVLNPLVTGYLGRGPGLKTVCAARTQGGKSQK

As for `Cc1cc(-c2nnn(C)n2)cc(C)c1-c1cccc2c1CC[C@H]2Nc1ccc([C@H]2C[C@@H]2C(=O)O)cn1` [Example 1, (1S,2S)-2-(6-{(R)-4-[2,6-Dimethyl-4-(2-methyl-2H-tetrazol-5-yl)-phenyl]-indan-1-ylamino}-pyridin-3-yl)-cyclopropanecarboxylic acid], in data set [1], the “Amount of degradation after 2 h” value is recorded as <0.5%. The concentration for half-maximal inhibition (IC50) (usually the concentration needed to halve the response being measured) in data set [2] stood at 48 µM; in data set [4], 16 µM. For the same molecule, a half-maximal response on human GPR40 receptor (EC50) required 0.007 µM. Besides, the solubility (in general, the dissolved amount per volume that the medium holds) at 24 h in data set [3] was 67 µg/mL (≈ 139 µM).
In the same order, the values of `Cc1cc(OCCC(C)(C)O)cc(C)c1-c1cccc2c1CC[C@H]2Nc1ccc([C@H]2C[C@@H]2C(=O)O)cn1` [Example 2, (1S,2S)-2-(6-{(R)-4-[4-(3-Hydroxy-3-methyl-butoxy)-2,6-dimethyl-phenyl]-indan-1-ylamino}-pyridin-3-yl)-cyclopropanecarboxylic acid] are <0.5%, > 50 µM, 30 µM, 0.011 µM and 83 µg/mL (≈ 166 µM).
In the same order, the values of `Cc1cc(OCCC(C)(C)O)cc(C)c1-c1ccc(F)c2c1CC[C@H]2Nc1ccc([C@H]2C[C@@H]2C(=O)O)cn1` [Example 4, (1S,2S)-2-(6-{(R)-7-Fluoro-4-[4-(3-hydroxy-3-methyl-butoxy)-2,6-dimethyl-phenyl]-indan-1-ylamino}-pyridin-3-yl)-cyclopropanecarboxylic acid] are <0.5%, > 50 µM, 46 µM, 0.008 µM and 89 µg/mL (≈ 172 µM).
In the same order, the values of `COc1cc(C)c(-c2ccc(F)c3c2CC[C@H]3Nc2ccc([C@H]3C[C@@H]3C(=O)O)cn2)c(C)c1` [Example 19] are <1.0%, 35 µM, 26 µM, 0.016 µM and 67 µg/mL (≈ 150 µM).
Consider `Cc1cc(C#N)cc(C)c1-c1ccc(F)c2c1CC[C@H]2Nc1ccc([C@H]2C[C@@H]2C(=O)O)cn1` [Example 20], for which the “Amount of degradation after 2 h” value in data set [1] is listed as <0.5%. Besides, the IC50 came to 33 µM in data set [2] and 24 µM in data set [4]. On human GPR40 receptor, the EC50 (in general, the midpoint of the concentration-response curve) stood at 0.018 µM. The solubility at 24 h in data set [3] worked out at 66 µg/mL (≈ 149 µM).
Take `Cc1cc(C(N)=O)cc(C)c1-c1ccc(F)c2c1CC[C@H]2Nc1ccc([C@H]2C[C@@H]2C(=O)O)cn1` [Example 21]: in data set [1], the “Amount of degradation after 2 h” value was <0.5%. Further, the IC50 in data set [2] and in data set [4] was > 50 µM in each case. The same molecule came in with an EC50 on human GPR40 receptor of 0.06 µM. Moreover, in data set [3], the solubility at 24 h came to 83 µg/mL (≈ 181 µM).
Consider `CCc1cccc(CC)c1-c1ccc(F)c2c1CC[C@H]2Nc1ccc([C@H]2C[C@@H]2C(=O)O)cn1` [Example 23], for which the “Amount of degradation after 2 h” value in data set [1] is listed as <0.5%. In addition, the half-inhibitory concentration (IC50) in data set [2] worked out at 15 µM; in data set [4], 11 µM. The molecule further gave a half-maximal effective concentration (EC50) at human GPR40 receptor of 0.005 µM. Further, in data set [3], the concentration in solution (solubility at 24 h) was 75 µg/mL (≈ 169 µM).
In the same order, the values of `Cc1nc(-c2cc(C)c(-c3ccc(F)c4c3CC[C@H]4Nc3ccc([C@H]4C[C@@H]4C(=O)O)cn3)c(C)c2)no1` [Example 26] are <0.5%, > 50 µM, 35 µM, 0.004 µM and 65 µg/mL (≈ 130 µM).
In the same order, the values of `Cc1cc(-c2ccnn2C)cc(C)c1-c1ccc(F)c2c1CC[C@H]2Nc1ccc([C@H]2C[C@@H]2C(=O)O)cn1` [Example 31] are <0.5%, 27 µM, 9 µM, 0.031 µM and 93 µg/mL (≈ 187 µM).
In the same order, the values of `Cc1cc(OCC(C)(C)C#N)cc(C)c1-c1ccc(F)c2c1CC[C@H]2Nc1ccc([C@H]2C[C@@H]2C(=O)O)cn1` [Example 35] are <0.5%, 34 µM, 18 µM, 0.023 µM and 59 µg/mL (≈ 115 µM).
In the case of `Cc1cc(-c2ccn(C)c(=O)c2)cc(C)c1-c1ccc(F)c2c1CC[C@H]2Nc1ccc([C@H]2C[C@@H]2C(=O)O)cn1` [Example 36], in data set [1], the “Amount of degradation after 2 h” value is <0.5%. Further, the IC50 in data set [2] was > 50 µM; in data set [4], 10 µM. The molecule further had an EC50 on human GPR40 receptor of 0.006 µM. Further, the solubility at 24 h in data set [3] came to 107 µg/mL (≈ 204 µM).
For `Cc1cc(O)cc(C)c1-c1ccc(F)c2c1CC[C@H]2Nc1ccc([C@H]2C[C@@H]2C(=O)O)cn1` [Example 41], the “Amount of degradation after 2 h” value in data set [1] was <1.5%. Also, the IC50 in data set [2] was > 50 µM; in data set [4], 34 µM. Also, the concentration for a half-maximal effect (EC50) at human GPR40 receptor is 0.033 µM. Besides, the solubility at 24 h in data set [3] is 103 µg/mL (≈ 238 µM).
In the same order, the values of `N#CC1(c2ccccc2-c2ccc(F)c3c2CC[C@H]3Nc2ccc([C@H]3C[C@@H]3C(=O)O)cn2)CC1` [Example 46] are <0.5%, 9 µM, 32 µM, 0.629 µM and 85 µg/mL (≈ 187 µM).
For `CC(C)c1ccccc1-c1ccc(F)c2c1CC[C@H]2Nc1ccc([C@H]2C[C@@H]2C(=O)O)cn1` [Example 47] the same measures were <0.5%, 14 µM, 12 µM, 0.026 µM and 72 µg/mL (≈ 167 µM).
